This is an account of results in US20260108546A1 (ELI LILLY AND COMPANY, priority 2024, published 2026).

The target of this experiment is T1, hGIP-R (Homo sapiens, UniProt P48546).
T1 construct: expressed in transfected cells; host or cells: HEK-293 clonal cell lines
T1 sequence (P48546 22-466): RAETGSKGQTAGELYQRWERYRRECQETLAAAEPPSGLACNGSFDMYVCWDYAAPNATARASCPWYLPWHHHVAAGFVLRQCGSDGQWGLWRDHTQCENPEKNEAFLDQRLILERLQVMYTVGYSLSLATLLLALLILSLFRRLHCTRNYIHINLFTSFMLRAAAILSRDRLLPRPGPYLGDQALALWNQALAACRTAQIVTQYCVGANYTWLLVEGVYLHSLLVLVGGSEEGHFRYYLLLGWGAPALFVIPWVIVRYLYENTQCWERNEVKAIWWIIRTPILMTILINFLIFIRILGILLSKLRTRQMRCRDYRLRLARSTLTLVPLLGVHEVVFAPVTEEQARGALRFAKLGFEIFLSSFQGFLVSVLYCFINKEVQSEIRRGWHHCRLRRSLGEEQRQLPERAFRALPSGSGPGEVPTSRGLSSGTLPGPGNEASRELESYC
The experiment in a line: Functional hGIP-R Assay (cAMP formation, HTRF). The format is cell-based. As to conditions: for Emax: cAMP efficacy, percent of maximal response to GIP(1-42)OH, 37° C., 0.1% bovine casein, arithmetic mean ± SEM; for EC50: cAMP potency, HEK-293 cells expressing hGIP-R, incubated at 37° C. in the presence of 0.1% bovine casein, geometric mean, read-out: Human GIP-R EC50, nM (SEM, n). As to the method:
Functional activity was determined using CAMP formation in HEK-293 clonal cell lines expressing hGIP-R. hGIP-R receptor expressing cells were treated with compound (20 point concentration-response curve in DMSO, 2-fold Labcyte Echo direct dilution, 384 well plate Corning Cat #3570) in DMEM (Gibco Cat #31053) supplemented with 1× GlutaMAX™ (Gibco Cat #35050), 0.1% bovine casein (Sigma C4765-10ML), 250 μM IBMX (3-Isobutyl-1-methylxanthine, Acros Cat #228420010) and 20 mM HEPES (Gibco Cat #15630) in a 20 μL assay volume (final DMSO concentration was 1%). After a 30 min incubation at 37° C., the resulting increase in intracellular cAMP was quantitatively determined using the Revvity CAMP Dynamic 2 HTRF Assay Kit (62AM4PEJ). Briefly, cAMP levels within the cell were detected by adding the cAMP-d2 conjugate in cell lysis buffer (10 μL) followed by the antibody anti-cAMP-Eu^3+-Cryptate, also in cell lysis buffer (10 μL). The resulting competitive assay was incubated for at least 60 min at RT, then detected using a BMG Labtech PHERAstar FSX instrument with excitation at 320 nm and emission at 665 nm and 620 nm. PHERAstar units (emission at 665 nm/620 nm*10,000) are inversely proportional to the amount of cAMP present and were converted to nM cAMP per well using a CAMP standard curve. The amount of cAMP generated (nM) in each well was converted to a percent of the maximal response observed with human GIP (1-42) OH. A relative EC50 value and percent top (Emax) were derived by non-linear regression analysis using the percent maximal response vs. the concentration of compound added, fitted to a four-parameter logistic equation.
(In general: Cyclic AMP is a second messenger, typically raised through Gs and lowered through Gi signalling.)

For `Cn1cc(C[C@@H](NC(=O)[C@H]2C[C@@H]2c2ccc(-c3cnc4nn(C)cc4c3)cc2)C(=O)NC(C)(C)Cn2nc(C(F)(F)F)cc2-c2ccn(C3CCOC3)n2)cn1` (mixture of isomers) [Example 53, (1S,2S)-N-((R)-1-((2-Methyl-1-(1-((RS)-tetrahydrofuran-3-yl)-5′-(trifluoromethyl)-1H,2′H-[3,3′-bipyrazol]-2′-yl)propan-2-yl)amino)-3-(1-methyl-1H-pyrazol-4-yl)-1-oxopropan-2-yl)-2-(4-(2-methyl-2H-pyrazolo[3,4-b]pyridin-5-yl)phenyl) cyclopropane-1-carboxamide, mixture of 2 diastereomers], the Emax (commonly the greatest response seen or fitted, relative to the assay's reference) was 123 ± 4.24% and the EC50 (in general, the midpoint of the concentration-response curve) came to 22.6 nM.

Turning to `Cn1cc(C[C@@H](NC(=O)[C@H]2C[C@@H]2c2ccc(-c3cnc4nn(C)cc4c3)cc2)C(=O)NC(C)(C)Cn2nc(C(F)(F)F)cc2-n2nccn2)cn1` (single isomer, unassigned) [Example 13], the Emax came to 112 ± 0.275% and the EC50 amounted to 49.7 nM.

In the case of `CN1CCC(n2cc(C(F)(F)F)nc2CC(C)(C)NC(=O)[C@@H](Cc2cnn(C(F)F)c2)N2CC[C@@]3(C[C@@H]3c3ccc(-c4cnc5nc(C6CC6)cn5c4)cc3Cl)C2=O)C1=O` (single isomer, unassigned) [Example 146], the Emax worked out at 120 ± 5.11% and the EC50 is 0.234 nM.

In the case of `CC(C)(Cn1nc(C(F)(F)F)cc1-c1ccn(C2CC2)c(=O)c1)NC(=O)[C@@H](Cc1cnn(C(F)F)c1)N1CCC2(CC2c2ccc(-c3cnc4nc(C5CC5)cn4c3)nc2C2CC2)C1=O` (single isomer, unassigned) [Example 166], the maximal response (Emax) was found to be 116 ± 2.13% and the EC50 amounted to 0.359 nM.

Turning to `Cc1cn2cc(-c3ccc(C4CC45CCN([C@H](Cc4cnn(C(F)F)c4)C(=O)NC(C)(C)Cn4nc(C(F)(F)F)cc4-c4ccn(C6CC6)c(=O)c4)C5=O)c(C4CC4)n3)cnc2n1` (single isomer, unassigned) [Example 167], the Emax worked out at 92.1 ± 0.883% and the EC50 turned out to be 0.753 nM.

For the molecule `Cn1cc(-c2cc(C(F)(F)F)nn2CC(C)(C)NC(=O)[C@@H](Cc2cnn(C(F)F)c2)N2CCC3(CC3c3ccc4cnn(C)c4c3)C2=O)cc(F)c1=O` (single isomer, unassigned) [Example 184], the maximum response (Emax) came to 15.2 ± 1.27% and the EC50 stood at 15.2 nM.

In the case of `Cn1cc2cc(-c3ccc([C@H]4C[C@@]45CCN([C@H](Cc4cnn(C(F)F)c4)C(=O)NC(C)(C)Cn4nc(C(F)(F)F)cc4-c4cc(F)c(=O)n(C)c4)C5=O)c(F)c3)cnc2n1` (single isomer, unassigned; isomer 1) [Example 99], the Emax was found to be 69.2 ± 0.431% and the EC50 came out at 6.84 nM.

Regarding `Cc1cn2cc(-c3ccc([C@H]4C[C@@]45CCN([C@H](Cc4cnn(C(F)F)c4)C(=O)NC(C)(C)Cn4nc(C(F)(F)F)cc4-c4cnc(C6CC6)nc4)C5=O)cc3)cnc2n1` (single isomer, unassigned; isomer 1) [Example 101], the Emax was found to be 59.6 ± 0.0693% and the EC50 is 58.5 nM.

As to `Cc1cn2cc(-c3ccc([C@H]4C[C@@]45CCN([C@H](Cc4cnn(C(F)F)c4)C(=O)NC(C)(C)Cn4nc(C(F)(F)F)cc4-c4cnc(C(F)(F)F)nc4)C5=O)cc3)cnc2n1` (single isomer, unassigned; isomer 1) [Example 102], the Emax was 69.4 ± 0.0734% and the EC50 worked out at 50.9 nM.

Regarding `CN1CC2C=C(c3ccc([C@H]4C[C@@]45CCN([C@H](Cc4cnn(C(F)F)c4)C(=O)NC(C)(C)Cn4nc(C(F)(F)F)cc4-c4cnc(C(F)(F)F)nc4)C5=O)cc3)C=NC2C1=O` (single isomer, unassigned; isomer 1) [Example 103], the Emax is 73.3 ± 6.2% and the EC50 came to 99.6 nM.

In the case of `Cn1cc(-c2cc(C(F)(F)F)nn2CC(C)(C)NC(=O)[C@@H](Cc2cnn(C(F)F)c2)N2CC[C@@]3(C[C@@H]3c3ccc(-c4cnc5nc(C(C)(C)O)ccc5c4)cc3)C2=O)ccc1=O` (single isomer, unassigned; isomer 1) [Example 104], the Emax was found to be 89 ± 1.12% and the EC50 was 54.6 nM.
